# Read-outs that look alike come from different tables or passages of the source.
# Columns and labels:
# PAF-induced hyperalgesia = experiment: Platelet Activating Factor (PAF) Induced Hyperalgesia in the Rat; type: in vivo, female Sprague-Dawley rats; details: for responders at 30 mg/kg: Rattus norvegicus, read-out: % Rats Exhibiting Analgesia; for Effect in PAF-induced hyperalgesia assay: p.o.; for Vocalization Threshold: mean in inflamed paw 3 hr after PAF; for % Analgesia: percentage of animals with V.T. greater than 200% of vehicle-treated controls
# Experimental: 1. Platelet Activating Factor. Induced Hyperalgesia in the Rat.
# Groups of 10 female Sprague-Dawley rats, 35-50 g (Taconic Farms), were fasted overnight prior to testing. Hyperalgesia was induced in the rat by the subplantar injection of 1 ug PAF in physiological saline. Pain threshold was measured by applying pressure to the plantar surface of the hindpaw by means of a compressed air driven piston with a 2 mm tip. Vocalization thresholds were obtained 3 hr after injection of the PAF. Compounds, prepared at various doses in 1% methylcellulose suspension, were administered perorally 30 min before PAF. For each drug treatment group, animals with response pressures in the inflamed paw of 200% of control was considered to be analgesic. The mean vocalization threshold for each group was also calculated.
# PBQ-induced writhing = experiment: Phenylbenzoquinone (PBQ)-induced writhing in the Mouse; type: in vivo, female mice (CD-1); details: for ED50: Mus musculus, po; for % Inhibition: writhing
# Experimental: 2. PHENYLBENZOQUINONE (PBQ)-induced writhing in the Mouse […] Groups of 10 female mice (CD-1, Charles River Breeding Laboratories), weighing 20-25 g were fasted overnight prior to experiments. […] The number of writhes for each animal was recorded and the group means and standard errors were calculated. The means obtained from the drug treated groups were compared to the vehicle control means values and percent inhibition of writhing was calculated. ED50 values were calculated by regression analysis.
# [1] = test system: indomethacin-induced gastric lesions; type: in vivo, Male Sprague-Dawley rats; details: for No. Gastric Lesions: Mean + S.E.M.
# Experimental: Male Sprague-Dawley rats, 130-150 g each, were sorted into groups for assay. The rats were fasted for 24 hours.
# Several hours after the administration of compound A, the animals are sacrificed, the stomachs removed, excises along the inner curvature, washed carefully with cool tap water and placed in 0.9% saline. When all groups have been processed, the mucosal region of the stomachs are examined under a magnifying lens and scored according to the total number of lesions present. Group scores represent the mean score of animals in that group. The effect of Compound A on indomethacin-induced gastric lesions is shown below in Table 6: […]
# [2] = test system: adjuvant-induced arthritis (Mycobacterium butyricum); experiment: Developing Adjuvant-Induced Arthritis Assay in the Lewis Rat; type: in vivo, Female Lewis rats; design: Foot Swelling-Day 14: unit not given here; details: for Adrenal Weight / Change Body Weight 0-21 days / Foot Swelling-Day 21 / Thymus Weight / Foot Swelling-Day 14: mean ± SEM; for Bone/Cartilage Destruction Score: score 0-3, 0 = 0 destruction, 3 = Maximum destruction; for Protection from bone/cartilage (hard tissue) destruction, X-ray: day 21, hindpaw joints, Compound A 3.0 and 10 mg/kg/day, Indomethacin 1 mg/kg/day
# Experimental: 3. Adjuvant Arthritis Assay
# During the development of adjuvant arthritis, the rats lose body weight, the thymus gland involutes and the adrenal gland weight increases.
# Female Lewis rats (purchased from Charles River, Wilmington, MA) were sorted into groups of ten in the weight range 160-199 g. The rats were sensitized to Mycobacterium butyricum (Difco) by the subplantar injection of 0.1 ml light mineral oil (Lubinol, Purepac Pharmaceutical Co., Elizabeth, NJ) containing 0.5 mg of the Mycobacterium into the left hindpaw. The Mycobacterium suspension was prepared by grinding in a glass mortar followed by the addition of the appropriate volume of light mineral oil. The suspension was transferred to a glass vial and stirred for 15 minutes on a magnetic stirrer to obtain a uniform suspension. After sensitization the rats were returned to metronic wire-bottomed cages and allowed food and water ad libitum with the food placed on the bottom of the cages for easy access. […] Rats received compound daily perorally as a suspension in 0.25% agar starting on the day of sensitization. Disease was quantitated by measuring the volume of the noninjected hindpaw by mercury displacement on days 0, 14 and 21. On day 21 (at the termination of the experiment) x-rays of the noninjected hindpaw were taken using a Phillips dental x-ray machine. Total body weight was determined on days 0 and 21 and at the termination of the experiment the thymus was removed and weighed. The statistical significance of the data was determined using Students t test.
# [3] = test system: gastric acid secretion / gastric cytoprotection; details: S. Szabo et al., Experimentia, 38, 254, 1982; cited from earlier work
# [4] = Platelet, po, 3 h, Table 2, 30 mg/kg p.o.
smiles,measurement,setting,value
"COc1ccc2cc([C@H](C)C(=O)O)ccc2c1 [Naproxen, reference compound]",% Rats Exhibiting Analgesia,"PAF-induced hyperalgesia; Table 2, 30 mg/kg p.o.",10%
"CC(C(=O)O)c1ccc2oc(-c3ccc(Cl)cc3)nc2c1 (stereo not shown) [Benoxaprofen, reference compound]",responders at 30 mg/kg,PAF-induced hyperalgesia; [4],10%
same,Effect in PAF-induced hyperalgesia assay,PAF-induced hyperalgesia; rat,completely ineffective
"CC(C)Cc1ccc(C(C)C(=O)O)cc1 (stereo not shown) [Ibuprofen, reference compound]",ED50,PBQ-induced writhing,9 mg/kg
same,responders at 30 mg/kg,PAF-induced hyperalgesia; [4],10%
same,Effect in PAF-induced hyperalgesia assay,PAF-induced hyperalgesia; rat,completely ineffective
"CN1C(C(=O)Nc2ccccn2)=C(O)c2ccccc2S1(=O)=O [Piroxicam, reference compound]",ED50,PBQ-induced writhing,2 mg/kg
same,responders at 30 mg/kg,PAF-induced hyperalgesia; [4],0%
same,Effect in PAF-induced hyperalgesia assay,PAF-induced hyperalgesia; rat,completely ineffective
"COc1ccc2c(c1)c(CC(=O)O)c(C)n2C(=O)c1ccc(Cl)cc1 [Indomethacin, reference compound]",No. Gastric Lesions,[1]; indomethacin alone 10.0 mg/kg P.O.,12.6 ± 4.4
same,% Inhibition Foot Swelling-Day 14,[2]; 1.0 mg/kg/day P.O.,87%
same,% Inhibition Foot Swelling-Day 21,[2]; 1.0 mg/kg/day P.O.,88%
same,Adrenal Weight,[2]; 1.0 mg/kg/day P.O.,82.7 ± 2.8 mg
same,Change Body Weight 0-21 days,[2]; 1.0 mg/kg/day P.O.,0.7 ± 3.4 gm
same,Foot Swelling-Day 21,[2]; 1.0 mg/kg/day P.O.,190 ± 38
same,Thymus Weight,[2]; 1.0 mg/kg/day P.O.,359.6 ± 17.9 mg
same,Bone/Cartilage Destruction Score,[2]; 1.0 mg/kg/day P.O.,0.1
same,"Protection from bone/cartilage (hard tissue) destruction, X-ray",[2],virtually complete protection from hard tissue destruction
same,% Rats Exhibiting Analgesia,"PAF-induced hyperalgesia; Table 2, 10 mg/kg p.o.",10%
same,Effect in PAF-induced hyperalgesia assay,PAF-induced hyperalgesia; rat,completely ineffective
"O=C(O)c1cc(-c2ccc(F)cc2F)ccc1O [Diflunisal, reference compound]",responders at 30 mg/kg,PAF-induced hyperalgesia; [4],10%
"O=C(NC=C(c1ccccc1)c1cccs1)c1sc2ccc(C(F)(F)F)cc2c1O [Compound A, 3-hydroxy-5-trifluoromethyl-N-[2-phenyl-2-(2-thienyl)]-benzo[b]thiophene-2-carboxamide]",% Inhibition of Lesions,[1]; 0.1 mg/kg P.O.,47%
same,No. Gastric Lesions,"[1]; 0.1 mg/kg P.O., indomethacin-induced (10 mg/kg)",6.7 ± 4.1
same,% Inhibition of Lesions,[1]; 0.3 mg/kg P.O.,60%
same,No. Gastric Lesions,"[1]; 0.3 mg/kg P.O., indomethacin-induced (10 mg/kg)",5.0 ± 3.1
same,% Inhibition of Lesions,[1]; 1.0 mg/kg P.O.,52%
same,No. Gastric Lesions,"[1]; 1.0 mg/kg P.O., indomethacin-induced (10 mg/kg)",6.1 ± 5.5
same,% Inhibition of Lesions,[1]; 10.0 mg/kg P.O.,81%
same,No. Gastric Lesions,"[1]; 10.0 mg/kg P.O., indomethacin-induced (10 mg/kg)",2.4 ± 1.1
same,ED50,PBQ-induced writhing,1 mg/kg
same,Analgesic activity compared with standard drugs,"PBQ-induced writhing; mouse, PBQ writhing, p.o.",equivalent to piroxicam and greater than ibuprofen
same,% Inhibition,"PBQ-induced writhing; mouse, 0.1 mg/kg p.o. 1 hr before PBQ",9 ± 3%
same,% Inhibition,"PBQ-induced writhing; mouse, 0.3 mg/kg p.o. 1 hr before PBQ",10 ± 5%
same,% Inhibition,"PBQ-induced writhing; mouse, 1.0 mg/kg p.o. 1 hr before PBQ",39 ± 13%
same,% Inhibition,"PBQ-induced writhing; mouse, 3.0 mg/kg p.o. 1 hr before PBQ",78 ± 7%
same,% Inhibition Foot Swelling-Day 14,[2]; 3.0 mg/kg/day P.O.,56%
same,% Inhibition Foot Swelling-Day 21,[2]; 3.0 mg/kg/day P.O.,43%
same,Adrenal Weight,[2]; 3.0 mg/kg/day P.O.,74.6 ± 3.3 mg
same,Change Body Weight 0-21 days,[2]; 3.0 mg/kg/day P.O.,-14.7 ± 3.2 gm
same,Foot Swelling-Day 14,[2]; 3.0 mg/kg/day P.O.,449 ± 83
same,Foot Swelling-Day 21,[2]; 3.0 mg/kg/day P.O.,921 ± 125
same,Thymus Weight,[2]; 3.0 mg/kg/day P.O.,161.0 ± 17.7 mg
same,Bone/Cartilage Destruction Score,[2]; 3.0 mg/kg/day P.O.,2.6
same,Effect on thymus weight loss,[2]; 10 mg/kg/day,inhibited the loss in weight of the thymus
same,% Inhibition Foot Swelling-Day 14,[2]; 10.0 mg/kg/day P.O.,73%
same,% Inhibition Foot Swelling-Day 21,[2]; 10.0 mg/kg/day P.O.,66%
same,Adrenal Weight,[2]; 10.0 mg/kg/day P.O.,91.8 ± 2.7 mg
same,Change Body Weight 0-21 days,[2]; 10.0 mg/kg/day P.O.,-12.2 ± 2.9 gm
same,Foot Swelling-Day 14,[2]; 10.0 mg/kg/day P.O.,279 ± 39
same,Foot Swelling-Day 21,[2]; 10.0 mg/kg/day P.O.,554 ± 67
same,Thymus Weight,[2]; 10.0 mg/kg/day P.O.,241.5 ± 17.1 mg
same,Bone/Cartilage Destruction Score,[2]; 10.0 mg/kg/day P.O.,1.1
same,Effect on body weight loss,[2]; both dose levels (3.0 and 10 mg/kg/day),significantly inhibited body weight loss
same,Inhibition of swelling of the noninjected hindpaw,[2]; chronic (21 days),marked inhibition of swelling of the noninjected hindpaw
same,"Protection from bone/cartilage (hard tissue) destruction, X-ray",[2],protection of the bone and cartilage destruction was only seen at the 10 mg/kg day dose level
same,ED50,"[2]; po, 336 h, rat, p.o., swelling of noninjected hindpaw, day 14",3 mg/kg
same,ED50,"PAF-induced hyperalgesia; Platelet, po, 3 h, rat, dose required to raise VT to greater than 200% of vehicle-treated control in 50% of animals, confidence limits 0.11-0.3",0.19 mg/kg
same,% Rats Exhibiting Analgesia,"PAF-induced hyperalgesia; Table 2, 0.1 mg/kg p.o.",50%
same,Vocalization Threshold,"PAF-induced hyperalgesia; rat, 0.001 mg/kg p.o. 30 min before PAF",10.2 mmHg
same,% Analgesia,"PAF-induced hyperalgesia; rat, 0.001 mg/kg p.o.",10%
same,Vocalization Threshold,"PAF-induced hyperalgesia; rat, 0.01 mg/kg p.o. 30 min before PAF",13.3 mmHg
same,% Analgesia,"PAF-induced hyperalgesia; rat, 0.01 mg/kg p.o.",25%
same,Vocalization Threshold,"PAF-induced hyperalgesia; rat, 0.03 mg/kg p.o. 30 min before PAF",13.0 mmHg
same,% Analgesia,"PAF-induced hyperalgesia; rat, 0.03 mg/kg p.o.",30%
same,Vocalization Threshold,"PAF-induced hyperalgesia; rat, 0.1 mg/kg p.o. 30 min before PAF",16.9 mmHg
same,% Analgesia,"PAF-induced hyperalgesia; rat, 0.1 mg/kg p.o.",50%
same,Vocalization Threshold,"PAF-induced hyperalgesia; rat, 0.3 mg/kg p.o. 30 min before PAF",17.6 mmHg
same,% Analgesia,"PAF-induced hyperalgesia; rat, 0.3 mg/kg p.o.",50%
same,Vocalization Threshold,"PAF-induced hyperalgesia; rat, 1.0 mg/kg p.o. 30 min before PAF",20.1 mmHg
same,% Analgesia,"PAF-induced hyperalgesia; rat, 1.0 mg/kg p.o.",67%
same,Vocalization Threshold,"PAF-induced hyperalgesia; rat, 3.0 mg/kg p.o. 30 min before PAF",18.3 mmHg
same,% Analgesia,"PAF-induced hyperalgesia; rat, 3.0 mg/kg p.o.",70%
"CC(=O)Oc1ccccc1C(=O)O [Aspirin, reference compound]",% Rats Exhibiting Analgesia,"PAF-induced hyperalgesia; Table 2, 100 mg/kg p.o.",10%
CCCCC[C@H](O)/C=C/[C@@H]1[C@@H](C/C=C\CCCC(=O)O)[C@H](O)C[C@H]1O [protaglandin F2B],Gastric cytoprotection,[3],does induce gastric cytoprotection
same,Inhibition of gastric acid secretion,[3],does not inhibit gastric acid secretion
"CC1=C(CC(=O)O)c2cc(F)ccc2/C1=C\c1ccc([S+](C)[O-])cc1 (stereo not shown) [Sulindac, reference compound]",responders at 30 mg/kg,PAF-induced hyperalgesia; [4],10%

# Source: patent US5068248A, “N-alkenyl-3-hydroxybenzo[b]thiophene-2-carboxamide derivatives as dual cyclooxygenase and lipoxygenase inhibitors” (Merck & Co., Inc., priority 1989, dated 1991)
